For test [1], the system named is Wild-type (+/+), male CD1 mice. In words: Line test (locomotor activity) after ICV injection, wild-type mice. The format is in vivo. Conditions: wild-type mice fasted overnight; ICV 5 μl; GLP-1 5 μg, Exendin(9-39) amide 10 μg, Exendin-4 amide 15 μg. The protocol: Male CD1 mice were used for these experiments. Wild-type (+/+), male CD1 mice (approx. 11 weeks old) were obtained from Charles River Canada (Quebec). Mice were acclimatized to the animal facility for several days prior to use in the actual experiments.
All mice were faster overnight 16 hours prior to the start of the experiment. Mice were lightly anesthetized by placing them in a covered beaker with 800 μl of Methoxyflurane (Metofane, Jannsen Pharmaceuticals) for approximately 3 minutes. Peptides were delivered into the ventricles by ICV injection using a 2.5 mm×30 gauge needle attached to a Hamilton syringe. All test peptides were dissolved in phosphate buffered saline. Mice were given 5 μl ICV injections of the test peptides or saline, following which they were observed closely for 3 hours.
(§1) Following ICV administration of GLP-1 [5 μg/5 μl; Glucagon-like Peptide 1 (7-36) amide, human, lot # AM680, Bachem California, Torrence, Calif.], Exendin(9-39) amide (10 μg/5 μl; lot # ZN136, Bachem California, Torrence, Calif.), Exendin-4 amide (15 μg/5 μl; kit # 506189, Bachem California, Torrence, Calif.), or PBS, mice were placed into individual cages for the period of observation.
(§2) To record food intake, mice were given a pre-weighed (approx. 3 g) amount of rodent chow when all members of a test group appeared fully alert, generally about 20-30 minutes after ICV injection.
(§3) Approximately 15-20 min. after the mice had begun to eat, or no longer than 30 min. following the addition of the pre-weighed rodent chow to the cages, the parameter of arousal/sedation was assessed, namely mice were assessed for locomotor activity by measuring the number of times each animal crossed over a line that was placed in the center of the cage (line test).
(§4) The Locomotor activity was assessed for 3×30 min consecutive periods. The data for the first 30 minutes observation period is shown in the accompanying FIG. 1.

For test [2], the system named is GLP-1R^(-/-) knockout mice. Put plainly: Line test (locomotor activity) after ICV injection, GLP-1R knockout mice. The format is in vivo. Conditions: GLP-1R knockout mice fasted overnight; ICV 5 μl; GLP-1 5 μg, Exendin(9-39) amide 10 μg, Exendin-4 amide 15 μg. The protocol: GLP-1R^(-/-) knockout age-matched male mice, produced as described above in example 1, were bred in the Toronto Hospital animal facility. All mice were fed a diet of ad libitum access to standard laboratory rat chow and tap water.
All mice were faster overnight 16 hours prior to the start of the experiment. Mice were lightly anesthetized by placing them in a covered beaker with 800 μl of Methoxyflurane (Metofane, Jannsen Pharmaceuticals) for approximately 3 minutes. Peptides were delivered into the ventricles by ICV injection using a 2.5 mm×30 gauge needle attached to a Hamilton syringe. All test peptides were dissolved in phosphate buffered saline.
as §1, §2, §3, §4

The subject of a further test is normal wildtype mice. In words: Dose response experiment, line test after ICV injection, non-fasted mice. It counts as in vivo. Conditions: for mean number of line crossings: not fasted, saline control 66.8. The protocol: A dose response experiment was performed to compare the specific activities of exendin and GLP-1 peptides. Additionally, this experiment was designed to eliminate the possibility that the sedative response was connected to any feeding behavior. Therefore, mice were not fasted prior to the experiment, and were instead allowed food and water ad libitum throughout their dark cycle. At the beginning of the light cycle, food was removed and peptides administered. Exendin or GLP-1 peptide, obtained as described above, were each injected ICV into normal wildtype mice at a concentration of 0.5, 1.0, 5.0 or 10.0 μg per 5 μl, and locomotor activity assessed as above.

The test system of a further test is rats. Conditions: ICV administration; cited from earlier work.

Regarding “Glucagon-like Peptide 1 (7-36) amide [GLP-1]”, the “locomotor activity (number of line cross events)” value in test [1] is “exhibited the same tendency”. Further, in test [2], the “locomotor activity / lethargy” value is recorded as “did not”. The “mean number of line crossings” value in the test with normal wildtype mice (10 μg per 5 μl ICV (highest dose)) is listed as 24. Also, in the test with rats, the “food intake / feeding” value is on record as “inhibits feeding” and the locomotor activity result was “reduction in locomotor activity”.

With Exendin(9-39) amide, the “locomotor activity (number of line cross events)” value in test [1] is “greatly increased locomotor activity”. Also, the “locomotor activity / lethargy” value in test [2] is on record as “induced lethargy”. Moreover, the “food intake / feeding” value with rats is reported as “doubled food intake”.

Consider Exendin-4 amide [exendin 4], for which the “locomotor activity (number of line cross events)” value in test [1] is “clear and marked decreased number of line cross events”. The “locomotor activity / lethargy” value in test [2] was “induced lethargy and reduced movement”. In addition, the “mean number of line crossings” value in the test with normal wildtype mice (0.5 μg per 5 μl ICV (lowest dose)) turned out to be 11.5. In addition, in the test with normal wildtype mice (sedative effect in the mammalian central nervous system, ICV), the “potency relative to GLP-1 on a weight (μg) basis” value was “at least 20 fold”.
